Experiment [1] addresses T1, Thromboxane A2 receptor (Homo sapiens, UniProt P21731).
T1 sequence (P21731 whole entry): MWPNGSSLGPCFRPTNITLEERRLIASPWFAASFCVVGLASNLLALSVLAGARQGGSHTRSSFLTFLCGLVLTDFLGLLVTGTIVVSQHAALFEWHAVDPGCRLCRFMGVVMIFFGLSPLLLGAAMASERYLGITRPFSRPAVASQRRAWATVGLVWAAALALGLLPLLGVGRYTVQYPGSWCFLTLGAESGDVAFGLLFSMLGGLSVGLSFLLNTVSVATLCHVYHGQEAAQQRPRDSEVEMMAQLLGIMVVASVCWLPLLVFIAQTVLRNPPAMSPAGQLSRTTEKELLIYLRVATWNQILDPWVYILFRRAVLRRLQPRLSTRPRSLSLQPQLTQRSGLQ

The target of experiment [2] is T2, B2 bradykinin receptor (Homo sapiens, UniProt P30411).
T2 sequence (P30411 whole entry): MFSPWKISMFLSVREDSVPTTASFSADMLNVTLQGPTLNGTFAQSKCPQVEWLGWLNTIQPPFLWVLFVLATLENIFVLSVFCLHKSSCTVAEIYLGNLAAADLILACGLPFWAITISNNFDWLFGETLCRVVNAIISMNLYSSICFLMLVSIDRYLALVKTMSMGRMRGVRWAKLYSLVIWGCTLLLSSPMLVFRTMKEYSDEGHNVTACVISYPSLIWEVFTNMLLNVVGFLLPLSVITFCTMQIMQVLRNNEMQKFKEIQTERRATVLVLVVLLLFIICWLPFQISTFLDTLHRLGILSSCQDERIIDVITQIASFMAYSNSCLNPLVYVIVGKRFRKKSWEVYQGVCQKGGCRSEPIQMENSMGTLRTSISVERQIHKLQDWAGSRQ

Experiment [3] concerns the target Sodium-dependent dopamine transporter (Homo sapiens, UniProt Q01959).
Experiment [4] addresses Vasopressin V2 receptor (Homo sapiens, UniProt P30518).
The target of experiment [5] is cGMP-inhibited 3',5'-cyclic phosphodiesterase 3A (Homo sapiens, UniProt Q14432). It is filed as functional.
Experiment [6] has as its target T3, Type-1 angiotensin II receptor (Homo sapiens, UniProt P30556).
T3 sequence (P30556 whole entry): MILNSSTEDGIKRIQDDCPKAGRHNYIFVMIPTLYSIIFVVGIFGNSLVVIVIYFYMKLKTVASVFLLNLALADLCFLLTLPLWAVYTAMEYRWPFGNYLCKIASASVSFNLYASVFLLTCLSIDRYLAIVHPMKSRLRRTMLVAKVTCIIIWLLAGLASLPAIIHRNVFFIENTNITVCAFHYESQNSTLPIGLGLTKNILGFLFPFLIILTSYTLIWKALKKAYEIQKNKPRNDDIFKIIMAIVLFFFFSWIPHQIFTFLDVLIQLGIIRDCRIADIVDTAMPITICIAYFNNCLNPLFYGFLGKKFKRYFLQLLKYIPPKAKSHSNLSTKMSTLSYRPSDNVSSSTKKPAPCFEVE

Experiment [7] concerns the target Sodium-dependent noradrenaline transporter (Homo sapiens, UniProt P23975).
Experiment [8] deals with T4, Cholecystokinin receptor type A (Homo sapiens, UniProt P32238).
T4 sequence (P32238 whole entry): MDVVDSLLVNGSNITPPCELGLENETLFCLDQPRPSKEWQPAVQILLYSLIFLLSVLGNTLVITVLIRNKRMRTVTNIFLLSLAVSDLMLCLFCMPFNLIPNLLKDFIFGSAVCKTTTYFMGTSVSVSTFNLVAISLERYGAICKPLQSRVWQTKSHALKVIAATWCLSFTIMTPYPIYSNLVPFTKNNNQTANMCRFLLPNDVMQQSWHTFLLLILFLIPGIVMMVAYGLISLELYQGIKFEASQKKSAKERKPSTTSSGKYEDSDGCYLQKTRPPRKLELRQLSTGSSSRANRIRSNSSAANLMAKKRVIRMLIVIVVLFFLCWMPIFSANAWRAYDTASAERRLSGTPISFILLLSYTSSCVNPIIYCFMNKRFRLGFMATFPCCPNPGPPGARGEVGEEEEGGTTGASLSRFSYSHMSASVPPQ

In experiment [9] the target is T5, 5-hydroxytryptamine receptor 2C (Homo sapiens, UniProt P28335).
T5 sequence (P28335 whole entry): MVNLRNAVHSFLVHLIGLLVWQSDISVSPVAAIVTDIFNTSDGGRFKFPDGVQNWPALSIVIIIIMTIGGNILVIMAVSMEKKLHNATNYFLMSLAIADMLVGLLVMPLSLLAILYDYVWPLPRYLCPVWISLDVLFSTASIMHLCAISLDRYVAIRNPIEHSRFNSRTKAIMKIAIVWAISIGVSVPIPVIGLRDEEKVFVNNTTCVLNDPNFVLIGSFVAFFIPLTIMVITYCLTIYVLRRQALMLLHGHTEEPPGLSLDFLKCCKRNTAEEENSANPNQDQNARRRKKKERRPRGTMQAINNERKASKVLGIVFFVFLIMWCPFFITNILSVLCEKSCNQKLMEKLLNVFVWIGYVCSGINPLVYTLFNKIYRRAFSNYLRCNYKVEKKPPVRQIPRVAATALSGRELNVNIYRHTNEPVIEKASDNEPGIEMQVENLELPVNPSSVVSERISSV

Experiment [10] deals with D(3) dopamine receptor (Homo sapiens, UniProt P35462).
In experiment [11] the target is T6, 5-hydroxytryptamine receptor 3A (Homo sapiens, UniProt P46098).
T6 sequence (P46098 whole entry): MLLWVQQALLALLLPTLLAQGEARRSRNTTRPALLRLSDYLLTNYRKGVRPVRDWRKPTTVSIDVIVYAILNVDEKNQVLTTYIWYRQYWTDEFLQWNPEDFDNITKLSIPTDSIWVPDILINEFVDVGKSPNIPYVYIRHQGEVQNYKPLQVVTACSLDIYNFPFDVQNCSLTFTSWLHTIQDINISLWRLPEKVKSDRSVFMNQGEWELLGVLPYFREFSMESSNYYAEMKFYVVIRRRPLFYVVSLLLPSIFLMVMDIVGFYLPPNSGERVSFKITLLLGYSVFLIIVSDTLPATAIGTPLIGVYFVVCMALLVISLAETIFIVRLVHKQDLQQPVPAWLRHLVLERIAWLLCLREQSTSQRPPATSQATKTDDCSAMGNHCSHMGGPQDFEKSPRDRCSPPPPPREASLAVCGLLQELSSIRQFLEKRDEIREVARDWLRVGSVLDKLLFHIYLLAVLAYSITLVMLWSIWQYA
It is filed as functional.

The target of experiment [12] is Delta-type opioid receptor (Homo sapiens, UniProt P41143).
The target of experiment [13] is Glutamate receptor ionotropic, NMDA 1 (Rattus norvegicus, UniProt P35439).
Note: assay procedure not described here.

Chain of Delta-type opioid receptor (P41143 whole entry): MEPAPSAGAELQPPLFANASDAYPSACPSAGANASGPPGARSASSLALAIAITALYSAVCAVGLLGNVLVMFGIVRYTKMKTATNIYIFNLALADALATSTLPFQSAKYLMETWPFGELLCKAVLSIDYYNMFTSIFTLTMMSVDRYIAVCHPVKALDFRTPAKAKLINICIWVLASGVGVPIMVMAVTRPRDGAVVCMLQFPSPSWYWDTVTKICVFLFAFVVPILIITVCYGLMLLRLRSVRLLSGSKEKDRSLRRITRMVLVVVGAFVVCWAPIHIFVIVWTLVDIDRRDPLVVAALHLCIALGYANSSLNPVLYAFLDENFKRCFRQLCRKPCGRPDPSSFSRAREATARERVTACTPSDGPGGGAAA
Chain of Sodium-dependent noradrenaline transporter (P23975 whole entry): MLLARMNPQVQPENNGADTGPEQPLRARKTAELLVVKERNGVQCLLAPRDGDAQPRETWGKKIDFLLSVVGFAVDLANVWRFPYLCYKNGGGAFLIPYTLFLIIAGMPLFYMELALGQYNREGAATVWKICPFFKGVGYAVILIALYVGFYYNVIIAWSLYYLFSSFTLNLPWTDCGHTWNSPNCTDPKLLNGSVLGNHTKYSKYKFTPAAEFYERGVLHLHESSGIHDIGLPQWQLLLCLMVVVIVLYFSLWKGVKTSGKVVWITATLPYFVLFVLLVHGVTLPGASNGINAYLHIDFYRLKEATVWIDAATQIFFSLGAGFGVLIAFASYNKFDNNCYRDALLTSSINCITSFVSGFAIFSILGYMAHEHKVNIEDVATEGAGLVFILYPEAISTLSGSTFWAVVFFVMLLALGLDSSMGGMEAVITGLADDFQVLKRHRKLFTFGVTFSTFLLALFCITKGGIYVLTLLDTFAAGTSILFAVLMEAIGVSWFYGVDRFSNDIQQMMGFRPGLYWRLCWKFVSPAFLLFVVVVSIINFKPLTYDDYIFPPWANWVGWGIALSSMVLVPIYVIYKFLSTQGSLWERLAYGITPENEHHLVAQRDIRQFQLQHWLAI
Chain of D(3) dopamine receptor (P35462 whole entry): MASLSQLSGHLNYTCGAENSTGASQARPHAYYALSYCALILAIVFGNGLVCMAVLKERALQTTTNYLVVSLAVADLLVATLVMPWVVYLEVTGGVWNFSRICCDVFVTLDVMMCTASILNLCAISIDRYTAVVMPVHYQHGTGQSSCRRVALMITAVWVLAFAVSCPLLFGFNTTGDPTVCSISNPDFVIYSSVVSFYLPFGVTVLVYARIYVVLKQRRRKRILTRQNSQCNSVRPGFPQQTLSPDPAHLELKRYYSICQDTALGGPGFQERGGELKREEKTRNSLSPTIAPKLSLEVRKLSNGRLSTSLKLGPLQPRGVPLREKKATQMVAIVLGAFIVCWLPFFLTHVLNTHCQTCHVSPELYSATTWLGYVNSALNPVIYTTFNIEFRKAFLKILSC
Chain of Sodium-dependent dopamine transporter (Q01959 whole entry): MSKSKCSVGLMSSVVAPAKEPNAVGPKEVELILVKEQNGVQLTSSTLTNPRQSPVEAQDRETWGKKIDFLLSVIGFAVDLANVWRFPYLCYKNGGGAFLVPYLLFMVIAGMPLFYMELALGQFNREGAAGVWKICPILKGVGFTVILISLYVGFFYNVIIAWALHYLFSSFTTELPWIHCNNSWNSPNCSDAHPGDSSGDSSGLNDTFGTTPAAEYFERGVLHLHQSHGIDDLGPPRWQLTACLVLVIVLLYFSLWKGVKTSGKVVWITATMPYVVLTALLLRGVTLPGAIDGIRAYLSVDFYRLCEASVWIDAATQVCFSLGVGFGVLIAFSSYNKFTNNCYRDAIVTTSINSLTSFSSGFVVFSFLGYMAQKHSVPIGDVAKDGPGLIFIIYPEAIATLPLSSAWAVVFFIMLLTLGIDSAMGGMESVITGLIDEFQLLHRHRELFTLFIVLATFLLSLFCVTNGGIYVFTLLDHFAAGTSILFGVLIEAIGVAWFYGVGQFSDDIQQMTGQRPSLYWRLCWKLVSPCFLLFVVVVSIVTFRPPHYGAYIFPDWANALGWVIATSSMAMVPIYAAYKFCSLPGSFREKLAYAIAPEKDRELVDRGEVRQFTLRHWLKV
Chain of cGMP-inhibited 3',5'-cyclic phosphodiesterase 3A (Q14432 whole entry): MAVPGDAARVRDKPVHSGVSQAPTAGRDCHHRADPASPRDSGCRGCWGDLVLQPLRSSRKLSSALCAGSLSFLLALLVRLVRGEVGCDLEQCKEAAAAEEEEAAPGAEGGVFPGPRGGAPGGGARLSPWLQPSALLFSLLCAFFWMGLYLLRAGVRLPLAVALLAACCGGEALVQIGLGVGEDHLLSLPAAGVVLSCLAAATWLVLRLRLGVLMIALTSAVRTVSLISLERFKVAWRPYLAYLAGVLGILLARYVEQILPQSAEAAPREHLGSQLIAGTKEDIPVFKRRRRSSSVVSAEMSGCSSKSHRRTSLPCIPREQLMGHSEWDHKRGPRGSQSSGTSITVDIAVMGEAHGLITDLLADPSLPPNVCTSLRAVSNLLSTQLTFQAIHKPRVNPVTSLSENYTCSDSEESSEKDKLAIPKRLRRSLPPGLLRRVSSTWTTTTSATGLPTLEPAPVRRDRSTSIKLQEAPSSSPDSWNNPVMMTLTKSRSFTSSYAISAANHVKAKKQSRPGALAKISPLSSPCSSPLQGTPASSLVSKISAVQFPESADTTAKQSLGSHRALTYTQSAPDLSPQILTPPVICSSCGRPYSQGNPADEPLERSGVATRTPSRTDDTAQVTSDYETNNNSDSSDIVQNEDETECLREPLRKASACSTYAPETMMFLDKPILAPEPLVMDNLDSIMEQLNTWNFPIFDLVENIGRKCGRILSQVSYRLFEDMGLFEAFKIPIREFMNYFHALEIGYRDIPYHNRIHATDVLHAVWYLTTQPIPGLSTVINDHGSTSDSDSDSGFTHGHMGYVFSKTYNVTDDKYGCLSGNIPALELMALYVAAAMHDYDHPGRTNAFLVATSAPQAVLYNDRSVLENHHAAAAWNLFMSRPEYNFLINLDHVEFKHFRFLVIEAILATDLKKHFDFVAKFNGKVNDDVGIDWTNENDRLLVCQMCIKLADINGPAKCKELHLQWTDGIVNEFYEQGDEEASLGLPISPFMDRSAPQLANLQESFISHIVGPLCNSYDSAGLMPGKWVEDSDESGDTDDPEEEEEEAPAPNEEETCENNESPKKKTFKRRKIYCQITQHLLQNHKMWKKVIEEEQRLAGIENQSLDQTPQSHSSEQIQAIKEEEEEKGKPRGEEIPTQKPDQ
Chain of Vasopressin V2 receptor (P30518 whole entry): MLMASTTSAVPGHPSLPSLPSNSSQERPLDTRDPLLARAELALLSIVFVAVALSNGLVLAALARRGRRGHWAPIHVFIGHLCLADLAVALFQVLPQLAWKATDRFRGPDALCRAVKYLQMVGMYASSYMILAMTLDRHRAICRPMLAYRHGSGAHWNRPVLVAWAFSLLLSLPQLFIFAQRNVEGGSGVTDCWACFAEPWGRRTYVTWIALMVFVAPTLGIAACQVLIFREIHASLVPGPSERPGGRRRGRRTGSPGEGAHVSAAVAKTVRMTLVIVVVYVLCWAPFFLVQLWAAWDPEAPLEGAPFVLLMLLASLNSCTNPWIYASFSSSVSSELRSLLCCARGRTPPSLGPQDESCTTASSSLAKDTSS

What is called AC50 is the midpoint of the concentration-response curve, whichever way the signal moves. Read a low AC50 as activity at low concentration. Turning to `CNCc1ccc(-c2[nH]c3cc(F)cc4c3c2CCNC4=O)cc1` [RUCAPARIB], the AC50 in experiment [1], in experiment [2], in experiment [3], in experiment [4], in [5] and in experiment [6] was above 30 µM in each case. Moreover, the figures for the half-maximal activity concentration (AC50) in [7] and in experiment [8] were 20.7 µM and above 30 µM, respectively.

Consider `CC12CC3CC(C)(C1)CC(N)(C3)C2` [MEMANTINE], for which the AC50 in experiment [1], in [9], in experiment [10], in experiment [2], in experiment [3] and in experiment [4] was above 30 µM in each case. For the same molecule, the AC50 in [5], in [6], in experiment [7], in [11], in experiment [8] and in experiment [12] was above 30 µM in each case.

`CCCc1nc(C(C)(C)O)c(C(=O)O)n1Cc1ccc(-c2ccccc2-c2nnn[nH]2)cc1` [OLMESARTAN] showed a concentration at half-maximal activity (AC50) in experiment [6] of 0.0004 µM.

Consider `O=[N+]([O-])c1ccc(O)c2ncccc12` [NITROXOLINE], for which the half-maximal activity concentration (AC50) is 5.5 µM in experiment [9]; 5.8 µM in experiment [10]; above 30 µM in [5]; 6.6 µM in experiment [11]; 5.7 µM in [12]; above 30 µM in [13].

Turning to `CC[C@@H]([C@H](C)O)n1ncn(-c2ccc(N3CCN(c4ccc(OC[C@@H]5CO[C@@](Cn6cncn6)(c6ccc(F)cc6F)C5)cc4)CC3)cc2)c1=O` [POSACONAZOLE], the concentration at half-maximal activity (AC50) in experiment [10], in experiment [3], in experiment [5], in experiment [7] and in [12] was above 30 µM each time.

With `O=C(O)c1cn(C2CC2)c2cc(N3CCNCC3)c(F)cc2c1=O` [CIPROFLOXACIN], the AC50 in experiment [1], in experiment [2], in experiment [4], in experiment [5], in experiment [6] and in experiment [8] was above 30 µM throughout.

`CCCN[C@H]1CCc2nc(N)sc2C1` [PRAMIPEXOLE]: the AC50 in experiment [1], in experiment [9], in [2], in experiment [3], in [4] and in [5] was above 30 µM throughout. Further, the AC50 in experiment [6] was above 30 µM; in experiment [7], above 30 µM; in experiment [11], above 30 µM; in [8] it was above 30 µM; in experiment [12], above 30 µM; in [13] it was above 10 µM.

On to `Oc1ccc2c(c1)CC[C@H](c1ccccc1)[C@@H]2c1ccc(OCCN2CCCC2)cc1` [LASOFOXIFENE], for which the concentration at half-maximal activity (AC50) in experiment [9] was 5.3 µM; in experiment [10], 2.2 µM; in experiment [2] it was above 30 µM; in [3], 0.117 µM; in experiment [4] it was 15 µM; in [5], above 30 µM. Further, the concentration at half-maximal activity (AC50) is above 30 µM in [6]; 2 µM in experiment [7]; above 30 µM in experiment [11]; above 3 µM in experiment [8]; 7.2 µM in experiment [12]; above 30 µM in experiment [13].

Turning to `COc1cc(N)c(Cl)cc1C(=O)NC1CCN(Cc2ccccc2)CC1` [CLEBOPRIDE], the AC50 in experiment [1] is above 30 µM; in experiment [9], 13 µM; in experiment [2] it was above 30 µM; in [3] it was 22 µM; in experiment [4] it was above 30 µM; in experiment [5] it was 7.7 µM. Besides, the half-maximal activity concentration (AC50) in experiment [6] is above 30 µM; in experiment [7] it was 15 µM; in experiment [11], 8.6 µM; in experiment [8], above 30 µM; in experiment [12], above 30 µM; in experiment [13] it was above 30 µM.

Regarding `C[C@]12CC[C@@H]3c4ccc(O)cc4C[C@@H](CCCCCCCCC[S+]([O-])CCCC(F)(F)C(F)(F)F)[C@H]3[C@@H]1CC[C@@H]2O` (stereo not given in full) [FULVESTRANT], the AC50 in [9], in [10], in experiment [2], in [3], in experiment [4] and in [5] was above 30 µM in each case. The concentration at half-maximal activity (AC50) in [6], in experiment [7], in experiment [11], in [8], in experiment [12] and in [13] was above 30 µM in each case.

For the molecule `CCC(C)C1(CC)C(=O)NC(=O)NC1=O` (stereo not given) [BUTABARBITAL], the AC50 in experiment [2], in [3], in [4], in [5], in experiment [6] and in experiment [7] was above 30 µM in each case. The half-maximal activity concentration (AC50) in experiment [8] was above 30 µM.

For the molecule `C/N=C(\NC)NCc1ccccc1` [BETHANIDINE], the AC50 is above 10 µM in [9]; above 30 µM in experiment [10]; above 30 µM in experiment [2]; above 30 µM in [3]; above 30 µM in experiment [4]; above 30 µM in experiment [5]. For the same molecule, the AC50 in experiment [6], in experiment [7], in [11], in experiment [8], in experiment [12] and in experiment [13] was above 30 µM each time.

Turning to `Cc1cnc(C(=O)NCCc2ccc(S(=O)(=O)NC(=O)NC3CCCCC3)cc2)cn1` [GLIPIZIDE], the half-maximal activity concentration (AC50) in [1], in experiment [9], in experiment [2], in experiment [4], in [5] and in experiment [6] was above 30 µM in each case. Moreover, the concentration at half-maximal activity (AC50) was above 10 µM in experiment [11], above 30 µM in [8], above 10 µM in [12] and above 10 µM in experiment [13].

Source of the values: ChEMBL document CHEMBL5291721, “A preclinical secondary pharmacology resource illuminates target-adverse drug reaction associations of marketed drugs” (Nat Commun, 2023).
